Common to all, as to assay type: in vivo
The subject of assay [1] is MOXIDECTIN-RESISTANT STRAIN OF H. contortus (MOF14). The assay is described as follows: Effect of verapamil on efficacy of moxidectin and ivermectin in jirds, moxidectin-resistant strain. The note with it: for EFFICACY (%) / WORM COUNTS (MEAN ± S.E.): MOF14 in jirds, 7 jirds/group, oral, MOX 0.017 mg/kg, IVM 0.028 mg/kg, VRP 20 mg/kg.
The test system of assay [2] is H. contortus moxidectin-resistant (MOF14) strain. The assay can be described thus: Efficacy of verapamil with or without ivermectin in jirds, moxidectin resistant strain. The conditions noted are these: for % EFFICACY: MOX-RESISTANT (MOF14) strain in jirds, oral, VRP 20 mg/kg, IVM 0.046 mg/kg. The procedure: (§1) Jirds, which are fed on a standard commercial ration to which 0.02% hydrocortisone has been added 5 days prior to infection, are inoculated with 1000 exsheathed L3 H. contortus. On day 10 after inoculation, the jirds are treated with either water or various doses of moxidectin or ivermectin orally. Each treatment group contains 6 jirds. Probit analyses are used to estimate LD50 levels for each anthelmintic against each strain.
(§2) H. contortus. Verapamil is given concomitantly with ivermectin by the oral route. Table 3. DEM[…] H. contortus […] OR S[…] IN JIRDS (n = # per group)

Assay [3] relates to H. contortus susceptible (PF14) strain. The assay is described as follows: Efficacy of verapamil with or without ivermectin in jirds, susceptible strain. The note with it: for % EFFICACY: SUSCEPTIBLE (PF14) strain in jirds, oral, VRP 20 mg/kg, IVM 0.024 mg/kg. As for the experimental part: as §1, §2
The mark [4] stands for this setting: verapamil 20 mg/kg, resistant worms in jirds (Example 8).

Turning to `CO/N=C1\C[C@]2(C[C@@H]3C[C@@H](C/C=C(\C)C[C@@H](C)/C=C/C=C4\CO[C@@H]5[C@H](O)C(C)=C[C@@H](C(=O)O3)[C@]45O)O2)O[C@H](/C(C)=C/C(C)C)[C@H]1C` [moxidectin, 23-(O-methyloxime)-LL-F28249α], in assay [1], the “EFFICACY (%)” value turned out to be 70% and the “WORM COUNTS (MEAN ± S.E.)” value is 14 ± 3.
Turning to 22,23-dihydroavermectin B1 [ivermectin], the “% EFFICACY” value in assay [2] came out at 79%. Also, in assay [1], the “EFFICACY (%)” value was found to be 80% and the “WORM COUNTS (MEAN ± S.E.)” value stood at 9 ± 1. In addition, the “% EFFICACY” value in assay [3] came to 54%.
On to `COc1ccc(CCN(C)CCCC(C#N)(c2ccc(OC)c(OC)c2)C(C)C)cc1OC` (centres unmarked) [verapamil], for which the “% EFFICACY” value in assay [2] was -53%. Besides, the “effect of verapamil on the efficacy of ivermectin” value in assay [2] (verapamil 20 mg/kg, moxidectin resistant worms in jirds (Example 7)) is listed as “significantly enhances the efficacy of ivermectin”. For the same molecule, in assay [1], the “EFFICACY (%)” value is -73% and the “WORM COUNTS (MEAN ± S.E.)” value was 80 ± 9. Further, in assay [1] (setting [4]), the “effect of verapamil on the efficacy of moxidectin” value is reported as “significantly increases the efficacy of moxidectin” and the “increase in efficacy when verapamil is coadministered with ivermectin” value is “not significant”. Moreover, the “% EFFICACY” value in assay [3] is listed as 17%. For the same molecule, the “effect on worm counts” value in assay [3] (verapamil alone, 20 to 80 mg/kg oral, jirds infected with susceptible or moxidectin resistant H. contortus) is “no significant effect on worm counts”.
